The source of these data is ChEMBL document CHEMBL4265949, “Design, synthesis and biological evaluation of 2-substituted 3-hydroxy-6-methyl-4H-pyran-4-one derivatives as Pseudomonas aeruginosa biofilm inhibitors” (Eur J Med Chem, 2018).

The source made the active and inactive calls. The rule behind the calls is not given here.

The term inhibition denotes the relative decrease from the control value, in per cent. A word on the MIC: it is the lowest concentration that inhibits growth of the organism.

Series [1] deals with Pseudomonas aeruginosa. Briefly: Inhibition of biofilm formation of Pseudomonas aeruginosa PAO1 at 20 uM after 24 hrs by crystal violet staining based assay relative to control. To be noted: PAO1, 24 h. Format: functional.
The test system of series [2] is Pseudomonas aeruginosa. Briefly: Antibacterial activity against Pseudomonas aeruginosa PAO1 recorded every 10 mins for 15 hrs by broth micro dilution method. It is filed as functional.
Series [3] in a line: Effect on GFP (unknown origin) protein expression in Pseudomonas aeruginosa PAO1 up to 40 uM after 12 hrs by GFP reporter gene assay. The following applies: unidentified. Background: A reporter such as luciferase makes a cellular process visible.
The target in series [4] is T1, Anthranilate--CoA ligase (Pseudomonas aeruginosa (strain ATCC 15692 / DSM 22644 / CIP 104116 /JCM 14847 / LMG 12228 / 1C / PRS 101 / PAO1)) (UniProt Q9I4X3).
T1 sequence (whole entry): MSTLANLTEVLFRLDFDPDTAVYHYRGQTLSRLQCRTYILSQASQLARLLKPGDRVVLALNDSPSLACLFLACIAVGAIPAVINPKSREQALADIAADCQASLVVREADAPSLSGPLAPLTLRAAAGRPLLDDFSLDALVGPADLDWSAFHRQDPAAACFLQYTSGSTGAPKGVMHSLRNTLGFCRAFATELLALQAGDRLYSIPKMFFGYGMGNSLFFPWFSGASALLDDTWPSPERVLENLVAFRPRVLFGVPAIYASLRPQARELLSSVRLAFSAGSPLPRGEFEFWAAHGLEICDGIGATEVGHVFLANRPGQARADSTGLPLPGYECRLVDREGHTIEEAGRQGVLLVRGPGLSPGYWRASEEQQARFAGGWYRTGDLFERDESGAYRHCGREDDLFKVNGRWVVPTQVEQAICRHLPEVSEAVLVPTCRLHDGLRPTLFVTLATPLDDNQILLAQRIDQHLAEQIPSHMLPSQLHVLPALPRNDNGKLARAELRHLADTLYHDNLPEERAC
The series is described as follows: Inhibition of Pseudomonas aeruginosa PAO1 GFP-fused quorum sensing pqsA measured every 15 mins up to 12 hrs by GFP reporter gene assay.

In series [5] the target is T1, Anthranilate--CoA ligase (Pseudomonas aeruginosa (strain ATCC 15692 / DSM 22644 / CIP 104116 /JCM 14847 / LMG 12228 / 1C / PRS 101 / PAO1)). The series is described as follows: Inhibition of Pseudomonas aeruginosa PAO1 GFP-fused quorum sensing pqsA assessed as decrease in pyocyanin production at 40 uM.
Series [6] shares this target. Briefly: Inhibition of Pseudomonas aeruginosa PAO1 GFP-fused quorum sensing pqsA assessed as decrease in pyocyanin production.
In series [7] the test system is RAW264.7. Briefly: Cytotoxicity against mouse RAW264.7 cells assessed as decrease in cell viability at 50 uM after 24 hrs by MTT assay. Format: cell-based. To be noted: raw264.7, 24 h.
Series [8] has as its system Pseudomonas aeruginosa. The series is described as follows: Inhibition of biofilm formation of Pseudomonas aeruginosa PAO1 at 2.5 uM after 24 hrs by crystal violet staining based assay relative to control. To be noted: PAO1, 24 h. Format: functional.
Series [9] has as its system Pseudomonas aeruginosa. Briefly: Inhibition of biofilm formation of Pseudomonas aeruginosa PAO1 after 24 hrs by confocal laser scanning microscopy. Format: functional, organism-based.
In series [10] the target is Elastase (Pseudomonas aeruginosa (strain ATCC 15692 / PAO1 / 1C / PRS 101 / LMG12228)) (UniProt P14756). Briefly: Inhibition of Pseudomonas aeruginosa PAO1 GFP-fused quorum sensing lasB up to 40 uM measured every 15 mins up to 12 hrs by GFP reporter gene assay.
For series [11], the target named is 3-(3-hydroxydecanoyloxy)decanoate synthase (Pseudomonas aeruginosa (strain ATCC 15692 / PAO1 / 1C / PRS 101 / LMG12228)) (UniProt Q51559). The series is described as follows: Inhibition of Pseudomonas aeruginosa PAO1 GFP-fused quorum sensing rhlA up to 40 uM measured every 15 mins up to 12 hrs by GFP reporter gene assay.
Series [12] has the same target. Briefly: Inhibition of Pseudomonas aeruginosa PAO1 GFP-fused quorum sensing rhlA assessed as decrease in rhamnolipid lipid levels up to 40 uM measured after 30 mins.
Series [13] relates to Pseudomonas aeruginosa. The series is described as follows: Antibacterial activity against Pseudomonas aeruginosa PAO1 up to 40 uM after 13 hrs by broth micro dilution method. It is filed as functional, organism-based.
Series [14] has as its system RAW264.7. The series is described as follows: Cytotoxicity against mouse RAW264.7 cells assessed as decrease in cell viability at <= 2.5 uM after 24 hrs by MTT assay. Format: cell-based. To be noted: raw264.7, 24 h. In general terms: Tetrazolium dyes change colour on reduction, which living cells bring about.
Series [15] deals with Elastase (Pseudomonas aeruginosa (strain ATCC 15692 / PAO1 / 1C / PRS 101 / LMG12228)) (UniProt P14756). The series is described as follows: Inhibition of Pseudomonas aeruginosa PAO1 GFP-fused quorum sensing lasB assessed as decrease in elastase activity up to 40 uM incubated for 24 hrs recorded every 10 mins for 3 hrs.
Series [16] relates to Pseudomonas aeruginosa. Briefly: Inhibition of biofilm formation of Pseudomonas aeruginosa PAO1 after 24 hrs by crystal violet staining based assay. Format: functional, organism-based.

Sequence of Elastase (Pseudomonas aeruginosa (strain ATCC 15692 / PAO1 / 1C / PRS 101 / LMG12228)) (P14756 198-498 limits assumed): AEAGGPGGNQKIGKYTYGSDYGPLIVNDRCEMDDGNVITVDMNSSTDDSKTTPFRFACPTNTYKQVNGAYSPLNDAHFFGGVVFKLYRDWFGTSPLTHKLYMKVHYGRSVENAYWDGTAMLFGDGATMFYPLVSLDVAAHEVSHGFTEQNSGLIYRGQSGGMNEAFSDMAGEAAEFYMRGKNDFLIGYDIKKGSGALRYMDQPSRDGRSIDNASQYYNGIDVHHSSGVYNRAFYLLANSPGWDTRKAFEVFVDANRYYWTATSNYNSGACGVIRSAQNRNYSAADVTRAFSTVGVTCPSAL

Compound `Cc1cc(=O)c(O)c(C(O)c2ccc(C#Cc3cccc(F)c3)cc2)o1` (stereo unspecified) gave an inhibition at 20 µM in the series on Pseudomonas aeruginosa [1] of 31.5%. This compound also displayed an MIC against Pseudomonas aeruginosa [2] above 512 µM.
Consider `Cc1cc(=O)c(O)c(C(O)c2ccc(-n3ccnc3)cc2)o1` (stereo unspecified), for which 20 µM produced 17.3% inhibition in the series on Pseudomonas aeruginosa [1]. Also, the MIC in the series with Pseudomonas aeruginosa [2] is above 512 µM.
As to `Cc1cc(=O)c(O)c(Cc2ccc(F)cc2)o1`, the inhibition at 20 µM with Pseudomonas aeruginosa [1] turned out to be 30.5%. For the same compound, the MIC against Pseudomonas aeruginosa [2] was above 512 µM.
For `CCCCCCC(O)c1oc(C)cc(=O)c1O` (stereo unspecified) the same measures were 41.5% and above 512 µM.
Taken in the same sequence, the figures for `Cc1cc(=O)c(O)c(C(O)c2cccc(F)c2)o1` (stereo unspecified) were 12.3% and above 512 µM.
`Cc1cc(=O)c(O)c(C(O)c2ccc(-c3ccc([N+](=O)[O-])cc3)cc2)o1` (stereo unspecified): the inhibition at 20 µM in the series with Pseudomonas aeruginosa [1] came to 48.5%. Moreover, the MIC with Pseudomonas aeruginosa [2] was above 512 µM.
For `Cc1cc(=O)c(O)c(Cc2ccccc2)o1` the same measures were 27.4% and above 512 µM.
For `Cc1cc(=O)c(O)c(C(O)c2ccc(C#CC3CCCCC3)cc2)o1` (stereo unspecified) the same measures were 36.9% and above 512 µM.
Regarding `CSCCC(O)c1oc(C)cc(=O)c1O` (stereo unspecified), at 20 µM the inhibition in the series with Pseudomonas aeruginosa [1] was 25.9%. The MIC against Pseudomonas aeruginosa [2] is above 512 µM.
For `Cc1cc(=O)c(O)c(C(O)c2ccc(OCc3ccccc3)cc2)o1` (stereo unspecified) the same measures were 22% and above 512 µM.
For `CCCC(O)c1oc(C)cc(=O)c1O` (stereo unspecified), 20 µM produced 33.2% inhibition with Pseudomonas aeruginosa [1]. Also, in the series with Pseudomonas aeruginosa [2], the MIC is above 512 µM.
As to `Cc1cc(=O)c(O)c(C(O)c2ccc(Cc3ccccc3)cc2)o1` (stereo unspecified), the inhibition at 20 µM in the series on Pseudomonas aeruginosa [1] came out at 20.6%. The same compound registered an MIC in the series on Pseudomonas aeruginosa [2] above 512 µM.
For `Cc1cc(=O)c(O)c(C(O)c2ccc(CCc3ccccc3)cc2)o1` (stereo unspecified) the same measures were 28.7% and above 512 µM.
Consider `Cc1cc(=O)c(O)c(C(O)c2ccc([N+](=O)[O-])cc2)o1` (stereo unspecified), for which the Activity entry is “Non-Toxic” in series [3], “Toxic” with RAW264.7 [7] and “Non-Toxic” in the series with RAW264.7 [14]. In addition, the inhibition entry in series [4] is “Dose-dependent effect”; in series [5] it was 60%; in [6] it was “Dose-dependent effect”; with Pseudomonas aeruginosa [9], “Dose-dependent effect”; in the series on Pseudomonas aeruginosa [16], “Dose-dependent effect”. This compound registered an inhibition at 20 µM in the series on Pseudomonas aeruginosa [1] of 51%. Also, the MIC in the series on Pseudomonas aeruginosa [2] is above 512 µM. In the series with Pseudomonas aeruginosa [8], the inhibition at 2.5 µM came to 30%. The inhibition result in series [10], in series [11], in series [12] and in [15] was “inactive” in each case. The result in the series with Pseudomonas aeruginosa [13] was inactive.
`Cc1cc(=O)c(O)c(C(O)c2ccc(/C=C/c3ccccc3)cc2)o1` (stereo unspecified): in the series on Pseudomonas aeruginosa [1], 20 µM produced 35.1% inhibition. The MIC in the series on Pseudomonas aeruginosa [2] is above 512 µM.
Taken in the same sequence, the figures for `Cc1cc(=O)c(O)c(C(O)c2ccc(OCc3ccc([N+](=O)[O-])cc3)cc2)o1` (stereo unspecified) were 22% and above 512 µM.
With `Cc1cc(=O)c(O)c(C(O)c2ccc(C#Cc3ccccc3)cc2)o1` (stereo unspecified), the inhibition at 20 µM in the series with Pseudomonas aeruginosa [1] turned out to be 30.2%. The compound also yielded an MIC in the series on Pseudomonas aeruginosa [2] above 512 µM.
For `Cc1cc(=O)c(O)c(Cc2ccc(C(F)(F)F)cc2)o1` the same measures were 32.8% and above 512 µM.
As for `CCCCCCCC(O)c1oc(C)cc(=O)c1O` (stereo unspecified), at 20 µM the inhibition in the series with Pseudomonas aeruginosa [1] was 15.8%. The same compound yielded an MIC with Pseudomonas aeruginosa [2] above 512 µM.
Taken in the same sequence, the figures for `CCCCC(O)c1oc(C)cc(=O)c1O` (stereo unspecified) were 22% and above 512 µM.
Taken in the same sequence, the figures for `Cc1cc(=O)c(O)c(Cc2ccc(Cl)cc2)o1` were 34.2% and above 512 µM.
Taken in the same sequence, the figures for `Cc1cc(=O)c(O)c(C(O)c2ccc(S(F)(F)(F)(F)F)cc2)o1` (stereo unspecified) were 31.7% and above 512 µM.
In the series with Pseudomonas aeruginosa [1], `Cc1cc(=O)c(O)c(C(O)c2ccc(C#Cc3ccc(C(F)(F)F)cc3)cc2)o1` (stereo unspecified) registered an inhibition at 20 µM of 24.9%. The same compound had an MIC against Pseudomonas aeruginosa [2] above 512 µM.
For `CCCCCC(O)c1oc(C)cc(=O)c1O` (stereo unspecified) the same measures were 44.6% and above 512 µM.
For `Cc1cc(=O)c(O)c(C(O)c2ccc(C#Cc3ccc(F)cc3)cc2)o1` (stereo unspecified) the same measures were 39.1% and above 512 µM.
For `Cc1cc(=O)c(O)c(C(O)c2ccc(-c3ccccc3)cc2)o1` (stereo unspecified) the same measures were 3.26% and above 512 µM.
In the series with Pseudomonas aeruginosa [1], `COc1ccc(C#Cc2ccc(C(O)c3oc(C)cc(=O)c3O)cc2)cc1` (stereo unspecified) returned an inhibition at 20 µM of 26.3%. The compound further returned an MIC in the series with Pseudomonas aeruginosa [2] above 512 µM.
Compound `Cc1cc(=O)c(O)c(C(O)c2cccc(Br)c2)o1` (stereo unspecified) registered an inhibition at 20 µM with Pseudomonas aeruginosa [1] of 5.67%. Further, the MIC in the series on Pseudomonas aeruginosa [2] was above 512 µM.
In the series on Pseudomonas aeruginosa [1], `Cc1cc(=O)c(O)c(C(O)c2ccc(C#Cc3ccccn3)cc2)o1` (stereo unspecified) displayed an inhibition at 20 µM of 37.7%. Besides, the MIC in the series on Pseudomonas aeruginosa [2] was above 512 µM.
Taken in the same sequence, the figures for `Cc1cc(=O)c(O)c(C(O)c2ccccc2Br)o1` (stereo unspecified) were 9.04% and above 512 µM.
In the series on Pseudomonas aeruginosa [1], `Cc1cc(=O)c(O)c(C(O)c2ccccc2F)o1` (stereo unspecified) gave an inhibition at 20 µM of 5.34%. In the series with Pseudomonas aeruginosa [2], this compound had an MIC above 512 µM.
